{"source": "patent US10676457B2", "about": "“Cyclopropylamines as LSD1 inhibitors” (Incyte Corporation, priority 2014, dated 2020)", "target": "LSD-1 enzyme (Homo sapiens (Human), UniProt O60341)", "test": "LANCE LSD1/KDM1A demethylase assay (LSD1 histone demethylase biochemical assay)", "conditions": "1 nM LSD-1 enzyme, 1 hour preincubation at 25° C., 0.4 μM Biotin-labeled Histone H3 peptide substrate", "procedure": "LANCE LSD1/KDM1A demethylase assay—10 μL of 1 nM LSD-1 enzyme (ENZO BML-SE544-0050) in the assay buffer (50 mM Tris, pH 7.5, 0.01% Tween-20, 25 mM NaCl, 5 mM DTT) were preincubated for 1 hour at 25° C. with 0.8 μL compound/DMSO dotted in black 384 well polystyrene plates. […] After stopping the reactions plates were incubated for 30 minutes and read on a PHERAstar FS plate reader (BMG Labtech).", "data": [{"smiles": "CS(=O)(=O)N1CC(CCO)(N2CCC(N[C@@H]3C[C@H]3c3ccccc3)CC2)C1", "note": "[Example 93, 2-[1-(methylsulfonyl)-3-(4-{[(1R,2S)-2-phenylcyclopropyl]amino}piperidin-1-yl)azetidin-3-yl]ethanol]", "values": [{"measurement": "IC50", "value": "< 100", "unit": "nM"}]}]}
